Reference: patent EP2236511A2, “LIGANDS OF ALPHA-ADRENOCEPTORS AND OF DOPAMINE, HISTAMINE, IMIDAZOLINE AND SEROTONIN RECEPTORS AND THE USE THEREOF” (priority 2007, dated 2009)

How the values were obtained:
[1] = target: T1, serotonin receptor 5-HT1B (Rattus norvegicus, UniProt P28564); assay: Radioligand binding to serotonin receptor 5-HT1B ([125I] cyanopindolol, rat brain cortex membranes); settings: 10 µM ligand
T1 construct: membrane species are prepared from rat brains (Wistar) by homogenization of species of rat brain-cortices; from tissue; host or cells: rat (Wistar) brain cortex
T1 sequence (P28564 whole entry): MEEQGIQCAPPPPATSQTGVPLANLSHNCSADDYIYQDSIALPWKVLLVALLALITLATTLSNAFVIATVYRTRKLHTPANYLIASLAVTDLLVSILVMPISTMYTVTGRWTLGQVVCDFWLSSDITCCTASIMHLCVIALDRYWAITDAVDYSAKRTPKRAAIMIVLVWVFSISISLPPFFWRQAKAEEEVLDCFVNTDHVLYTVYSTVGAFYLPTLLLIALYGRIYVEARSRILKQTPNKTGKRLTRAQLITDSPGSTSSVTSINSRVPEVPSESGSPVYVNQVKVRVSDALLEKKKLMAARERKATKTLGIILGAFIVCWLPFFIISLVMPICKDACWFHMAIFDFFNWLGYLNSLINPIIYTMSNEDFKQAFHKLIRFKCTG
Source text: Serotonin is used as positive control.

[2] = target: T2, recombinant human 5-HT2A receptor (Homo sapiens, UniProt P28223); assay: Radioligand binding to serotonin receptor 5-HT2A ([3H] Ketanserin, CHO-K1 membranes); settings: 10 µM ligand
T2 construct: expressed in transfected cells; host or cells: CHO-K1
T2 sequence (P28223 whole entry): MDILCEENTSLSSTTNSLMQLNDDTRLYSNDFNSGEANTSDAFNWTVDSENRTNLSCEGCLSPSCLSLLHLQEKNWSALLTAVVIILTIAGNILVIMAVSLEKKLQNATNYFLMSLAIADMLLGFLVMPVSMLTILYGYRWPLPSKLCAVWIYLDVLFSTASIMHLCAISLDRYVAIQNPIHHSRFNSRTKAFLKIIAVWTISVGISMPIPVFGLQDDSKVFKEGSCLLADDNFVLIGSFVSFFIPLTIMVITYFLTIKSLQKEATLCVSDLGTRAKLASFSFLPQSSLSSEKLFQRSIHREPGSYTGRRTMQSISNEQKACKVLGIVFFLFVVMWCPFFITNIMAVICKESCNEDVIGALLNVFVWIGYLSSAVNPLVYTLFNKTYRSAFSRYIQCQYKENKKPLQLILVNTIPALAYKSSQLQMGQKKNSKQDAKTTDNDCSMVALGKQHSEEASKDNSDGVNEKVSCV
Source text: 9-C. […] J Neurochem. […] Ketanserin is used as positive control.

[3] = target: T3, recombinant human 5-HT2B receptor (Homo sapiens, UniProt P41595); assay: Radioligand binding to serotonin receptor 5-HT2B ([3H] Lysergic acid diethylamide, CHO-K1 membranes); settings: 10 µM ligand
T3 construct: expressed in transfected cells; host or cells: CHO-K1
T3 sequence (P41595 whole entry): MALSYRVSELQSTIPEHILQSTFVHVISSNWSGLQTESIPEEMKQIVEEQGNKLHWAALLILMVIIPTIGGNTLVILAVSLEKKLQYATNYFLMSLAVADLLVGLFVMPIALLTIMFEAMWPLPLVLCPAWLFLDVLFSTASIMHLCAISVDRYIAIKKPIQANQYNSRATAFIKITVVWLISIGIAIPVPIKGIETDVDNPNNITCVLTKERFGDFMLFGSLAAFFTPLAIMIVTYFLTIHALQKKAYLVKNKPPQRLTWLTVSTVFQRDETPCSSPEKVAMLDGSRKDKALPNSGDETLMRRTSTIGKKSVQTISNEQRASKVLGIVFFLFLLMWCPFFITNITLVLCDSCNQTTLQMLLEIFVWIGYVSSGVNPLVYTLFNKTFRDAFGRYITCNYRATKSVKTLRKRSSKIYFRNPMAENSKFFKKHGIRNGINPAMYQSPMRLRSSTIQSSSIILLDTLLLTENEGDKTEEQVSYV
Description: For this purpose membrane species are prepared from CHO-K1 cells comprising recombinant human 5-HT2B receptor by homogenization of recombinant cells in glass homogenizer with the subsequent separation of plasmatic membranes from cell nuclei, mitochondrias and cell wreckages by differential centrifugation. […] After incubation the samples are filtered in vacuo on glass-microfiber filters G/F (Millipor, USA), filters are washed three times with cold solution of medium and radioactivity is measured by scintillation counter MicroBeta 340 (Perkin Elmer, USA). […] Ketanserin is used as positive control. The tested compounds' binding to the receptor is determined by their ability to displace the radioligand and is expressed in percent of displacement (%I). Values of %I are calculated according to the following equation: %I = (TA-CA)/(TA-NA)*100, [formula] wherein: TA - is the overall radioactivity in the presence of radioligand only, CA - is the radioactivity in the presence of radioligand and tested compound and NA - is the radioactivity in the presence of radioligand and Serotonin (10 µM).

[4] = target: T4, recombinant human 5-HT2C receptor (Homo sapiens, UniProt P28335); assay: Radioligand binding to serotonin receptor 5-HT2C ([3H] Mesulergine, CHO-K1 membranes); settings: 10 µM ligand
T4 construct: expressed in transfected cells; host or cells: CHO-K1
T4 sequence (P28335 33-458): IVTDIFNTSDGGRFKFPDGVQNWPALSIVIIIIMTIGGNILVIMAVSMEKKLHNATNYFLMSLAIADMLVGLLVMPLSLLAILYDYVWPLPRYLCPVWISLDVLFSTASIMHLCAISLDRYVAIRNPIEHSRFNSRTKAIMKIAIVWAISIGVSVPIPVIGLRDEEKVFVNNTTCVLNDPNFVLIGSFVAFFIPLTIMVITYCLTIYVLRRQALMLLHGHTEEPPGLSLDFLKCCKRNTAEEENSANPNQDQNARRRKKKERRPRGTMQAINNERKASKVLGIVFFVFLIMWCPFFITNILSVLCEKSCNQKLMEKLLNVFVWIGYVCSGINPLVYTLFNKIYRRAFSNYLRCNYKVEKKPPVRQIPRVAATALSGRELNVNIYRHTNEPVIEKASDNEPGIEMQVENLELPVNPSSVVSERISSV
Source text: J Neurochem. 69: 1449 - 1458, 1997]. […] SB242084 is used as positive control.

male mice of BALB/c line = assay: Passive Avoidance of mice in the Shuttle Chamber, memory disturbed by Scopolamine; format: in vivo; settings: Scopolamine 0.3 mg/kg, injected 30 minutes before training; figures 1-3
Description: Example 14. […] A shuttle chamber (Ugo Basile, Italy) consisted of two sections was used. […] The sections were connected through a hole which could be overlapped by a vertical door. The floor was made of transverse metal bars on which DC current impulses could be fed. Experiments were carried out in aged male mice of BALB/c line weighing 20-24 grams.
Each group consisted of at least 8 animals. Animal was placed in light section, and latent period of the first entry into dark chamber was registered. Then the vertical door was closed and the animal was punished by 0.6 mA DC current for 3 seconds. After that it was taken back to its homecage. In 22-24 hours the same animal was placed again in light section of the shuttle chamber and latent period of its first entry into dark section, the total time of its stay in light section, and the number of entries into dark section, were registered. Each monitoring lasted for 5 minutes.
Testing was carried out during the day time in isolated laboratory using white noise at level of about 70 decibel above human hearing threshold.
Scopolamine causes the disturbance of training (memory loss) that results in […].

human H1 receptor = target: T5, human H1 receptor (Homo sapiens, UniProt P35367); assay: Radioligand binding to histamine receptor H1 ([3H] Pyrilamine, CHO-K1 membranes); settings: 10 µM ligand; 10 µM
T5 construct: expressed in transfected cells; host or cells: CHO-K1
T5 sequence (P35367 whole entry): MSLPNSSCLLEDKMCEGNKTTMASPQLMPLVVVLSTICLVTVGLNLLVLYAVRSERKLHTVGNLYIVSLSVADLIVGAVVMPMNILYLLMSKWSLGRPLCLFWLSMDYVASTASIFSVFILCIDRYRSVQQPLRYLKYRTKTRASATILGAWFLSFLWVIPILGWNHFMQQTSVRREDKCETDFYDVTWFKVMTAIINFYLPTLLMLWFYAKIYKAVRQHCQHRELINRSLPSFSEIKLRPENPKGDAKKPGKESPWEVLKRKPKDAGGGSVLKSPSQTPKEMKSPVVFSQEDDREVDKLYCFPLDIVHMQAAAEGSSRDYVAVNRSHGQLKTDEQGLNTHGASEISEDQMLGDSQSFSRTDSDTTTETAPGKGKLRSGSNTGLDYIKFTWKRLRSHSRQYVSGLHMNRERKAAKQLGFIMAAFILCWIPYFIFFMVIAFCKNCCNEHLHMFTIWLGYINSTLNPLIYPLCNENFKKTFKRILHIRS
Source text: Biochem Biophys Res Comm. 197(3): 1601-1608, 1993]. […] Biochem Biophys Res Comm. 197(3): 1601-1608, 1993].
Pyrilamine is used as positive control.

human H2 receptor = target: T6, human H2 receptor (Homo sapiens, UniProt P25021); assay: Radioligand binding to histamine receptor H2 ([125I] Aminopotentidine, CHO-K1 membranes); settings: 10 µM ligand
T6 construct: expressed in transfected cells; host or cells: CHO-K1
T6 sequence (P25021 whole entry): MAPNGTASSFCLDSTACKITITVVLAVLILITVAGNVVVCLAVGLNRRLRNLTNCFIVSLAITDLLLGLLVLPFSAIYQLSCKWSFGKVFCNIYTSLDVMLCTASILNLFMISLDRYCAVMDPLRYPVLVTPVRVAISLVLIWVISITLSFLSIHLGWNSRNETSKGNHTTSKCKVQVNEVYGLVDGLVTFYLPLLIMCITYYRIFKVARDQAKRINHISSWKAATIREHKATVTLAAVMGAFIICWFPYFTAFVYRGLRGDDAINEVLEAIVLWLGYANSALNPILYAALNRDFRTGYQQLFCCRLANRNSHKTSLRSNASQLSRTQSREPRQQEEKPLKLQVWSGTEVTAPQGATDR
Source text: Proc Natl Acad Sci USA. 87(5): 1658-1662, 1990]. […] Proc Natl Acad Sci USA. 87(5): 1658-1662, 1990]. […] Tiotidine is used as positive control.

## Cc1ccc2c(c1)c1c(n2/C=C\c2ccccc2)CCN(C)C1 [1.1(6)]
[1]
  5-HT1B % inhibition: 86%
[2]
  5-HT2A % inhibition: 100%
[3]
  5-HT2B % inhibition: 98%
[4]
  5-HT2C % inhibition: 101%
Male mice of BALB/c line
  enhancement of memory disturbed by Scopolamine: improve memory

## COc1ccc2c(c1)c1c(n2CCc2ccccn2)CCN(C)C1 [1.1.2(2-4)·2HCl]
Male mice of BALB/c line
  enhancement of memory disturbed by Scopolamine: improve memory

## Cc1ccc2c(c1)c1c(n2CCc2ccc(C)nc2)CCN(C)C1 [1.1.2(4-4)·2CH3SO3H, 2,8-dimethyl-5-[2-(4-methylpyridin-3-yl)ethyl]-1,2,3,4-tetrahydro-1H-pyrido[4,3-b]indole bis-methylsulfonate]
Human H1 receptor
  Histamine receptors, % inhibition H1: 102%
Human H2 receptor; read-out: Histamine receptors, % inhibition H2
  inhibition at 10 µM: 99%

## Cc1ccc2c(c1)c1c(n2CCc2ccc(C)nc2)CCN(C)C1 [1.1.2(4-5)·1/2NDSA, 2,8-dimethyl-5-[2-(4-methylpyridin-3-yl)ethyl]-1,2,3,4-tetrahydro-1H-pyrido[4,3-b]indole naphtalene-1,5-disulfonate]
Human H2 receptor; 10 µM
  Histamine receptors, % inhibition H2: 100%
